Source: ChEMBL document CHEMBL1201862, “PubChem BioAssay data set” (2004)
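Results reflect a 48-hour exposure of cells in 96-well plates to compound at five concentrations. The concentration for 50% growth inhibition is given as GI50.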 Active and inactive are the calls of the source. Cut-off read from the data, not from the text of the source: active = GI50 up to about 1.1 µM and inactive = higher.

What was measured:
Experiment in all cases: DTP human tumour cell line panel, 48 h
786-0 = system: 786-0
HCC 2998 = system: HCC 2998
HCT-116 = system: HCT-116
HCT-15 = system: HCT-15
KM-20L2 = system: KM-20L2
M14 = system: M14
M19-MEL = system: M19-MEL
MCF7 = system: MCF7
MDA-MB-231 = system: MDA-MB-231
MDA-MB-435 = system: MDA-MB-435
MDA-N = system: MDA-N
OVCAR-4 = system: OVCAR-4
RPMI-8226 = system: RPMI-8226
SF-539 = system: SF-539
SK-MEL-5 = system: SK-MEL-5
SN12C = system: SN12C
SNB-19 = system: SNB-19
SW-620 = system: SW-620
U-251 = system: U-251
UACC-62 = system: UACC-62

Measured: GI50

O=C(CC1(O)C(=O)Nc2c(Cl)ccc(Cl)c21)c1ccco1 (centres undefined)
25.2 µM: HCT-15
inactive: 786-0 15.5 µM | HCC 2998 33.5 µM | HCT-116 14 µM | KM-20L2 37.8 µM | M14 14.5 µM | M19-MEL 2.31 µM | MCF7 14.9 µM | MDA-MB-231 25.5 µM | MDA-MB-435 1.85 µM | MDA-N 3.63 µM | OVCAR-4 7.06 µM | RPMI-8226 16.8 µM | SF-539 27.9 µM | SK-MEL-5 17.8 µM | SN12C 17.3 µM | SNB-19 42.3 µM | SW-620 20.1 µM | U-251 22.7 µM | UACC-62 13.5 µM

CCCC(=O)Oc1ccc(/C=N/NC(N)=S)nc1
inactive: 786-0 37 µM | HCC 2998 > 100 µM | HCT-116 > 100 µM | KM-20L2 > 100 µM | M14 98.6 µM | M19-MEL > 100 µM | OVCAR-4 > 100 µM | RPMI-8226 > 100 µM | SF-539 36.5 µM | SK-MEL-5 > 100 µM | SN12C > 100 µM | SNB-19 > 100 µM | SW-620 > 100 µM | U-251 > 100 µM | UACC-62 64.1 µM
> 100 µM: HCT-15

COc1cc2c(c(O)c1O)-c1ccc(OC)c(=O)cc1C(NC(C)=O)CC2 (centres undefined)
inactive: 786-0 16.6 µM | HCC 2998 8.05 µM | HCT-116 5.57 µM | KM-20L2 3.8 µM | M14 7.41 µM | M19-MEL 6.98 µM | OVCAR-4 27.5 µM | RPMI-8226 3.86 µM | SF-539 3.2 µM | SK-MEL-5 3.58 µM | SN12C 12.8 µM | SNB-19 5.07 µM | SW-620 5.27 µM | U-251 4.88 µM | UACC-62 6.98 µM
> 95.1 µM: HCT-15

Nc1ccccc1C(=O)/C=C/c1c(O)ccc2ccccc12
inactive: 786-0 > 100 µM | HCC 2998 > 100 µM | HCT-116 > 100 µM | KM-20L2 > 100 µM | M14 > 100 µM | M19-MEL 19.4 µM | OVCAR-4 > 100 µM | RPMI-8226 > 100 µM | SF-539 > 100 µM | SK-MEL-5 > 100 µM | SN12C 32.7 µM | SNB-19 > 100 µM | SW-620 > 100 µM | U-251 > 100 µM | UACC-62 > 100 µM
> 100 µM: HCT-15

COc1ccc(C(=O)C(c2ccc(OCc3ccccc3)cc2)c2ccc(OCc3ccccc3)cc2)cc1
inactive: 786-0 > 100 µM | HCC 2998 > 100 µM | HCT-116 > 100 µM | KM-20L2 > 100 µM | M14 > 100 µM | M19-MEL > 100 µM | OVCAR-4 > 100 µM | RPMI-8226 > 100 µM | SF-539 > 100 µM | SK-MEL-5 > 100 µM | SN12C > 100 µM | SNB-19 > 100 µM | SW-620 > 100 µM | U-251 > 100 µM | UACC-62 > 100 µM
> 100 µM: HCT-15
